36 molecules from US9616053B2, “Indolin-2-one or pyrrolo-pyridin/pyrimidin-2-one derivatives” (Hoffmann-La Roche Inc., priority 2013, dated 2017) can be followed below.

Structures can show the parent of a compound that is named as a salt.

The test system of the first assay is L-687,414-induced hyperlocomotion. The assay can be described thus: L-687,414-induced hyperlocomotion (Digiscan locomotor activity). The note with it: Mus musculus; dose ip 20 mg/kg, at the same time as s.c. 50 mg/kg L-687,414; mice. It counts as in vivo, mouse. From the text: The authors described that hyperlocomotion induced by L-687,414 was inhibited by a series of known antipsychotic drugs. […] These findings predict antipsychotic activity for the present compounds, making them useful for the treatment of positive (psychosis) and negative symptoms of schizophrenia, substance abuse, alcohol and drug addiction, obsessive-compulsive disorders, cognitive impairment, bipolar disorders, mood disorders, major depression, resistant depression, anxiety disorders, Alzheimer's disease, autism, Parkinson's disease, chronic pain, borderline personality disorder, sleep disturbances, chronic fatigue syndrome, stiffness, antiinflammatory effects in arthritis and balance problems.
The described compounds of formula I reduce L-687,414-induced hyperlocomotion. This was assessed by using a computerized Digiscan 16 Animal Activity Monitoring System (Omnitech Electronics, Columbus, Ohio) to quantify locomotor activity. Animals were kept under a 12 h light/dark cycle and experiments were performed during the light period. Each activity monitoring chamber consisted of a Plexiglas box (41×41×28 cm; W×L×H) with sawdust bedding on the floor surrounded by invisible horizontal and vertical infrared sensor beams. The test boxes were divided by a Plexiglas cross providing each mouse with 20×20 cm of moving space. Cages were connected to a Digiscan Analyzer linked to a computer that constantly collected the beam status information. Records of photocell beam interruptions for individual animals were taken every 5 min over the duration of the experimental session and the sum of the first 6 periods was used as the final parameter. Compounds were administered either p.o. 15 min before a s.c. injection of 50 mg/kg of L-687,414, or i.p. at the same time as a s.c. injection of 50 mg/kg of L-687,414. Mice were then transferred from their home cage to the recording chambers for a 15-min habituation phase allowing free exploration of the new environment. Horizontal activity was then recorded for a 30-min time period. The % inhibition of L-687,414-induced hyperlocomotion was calculated according to the equation: ((Veh+L-687,414 horizontal activity−drug+L-687,414 horizontal activity)Veh+L-687,414 horizontal activity)×100
ID50 values, defined as doses of each compound producing 50% inhibition of L-687,414-induced hyperlocomotion, were calculated by linear regression analysis of a dose-response data using an Excel-based computer-fitting program.
As data was not presupposed to be normally distributed, groups treated with test compounds were statistically compared with the control (vehicle-treated) group using one-tailed Mann Whitney U tests. In statistics, the Mann-Whitney Utest (also called the Mann-Whitney-Wilcoxon (MWW) or Wilcoxon rank-sum test) is a non-parametric statistical hypothesis test for assessing whether one of two samples of independent observations tends to have larger values than the other. It is one of the most well-known non-parametric significance tests. […] P values given in table 1 are one-tailed since only decreases in locomotion were expected and tested for (Mann, H. B., Whitney, D. R. (1947), “On a Test of Whether one of Two Random Variables is Stochastically Larger than the Other”, Annals of Mathematical Statistics, 18 (1), 50-60).
Broadly, the inhibition is the percentage by which the read-out fell short of the control. Molecule `Cc1cc(-c2ncc3c(n2)N(C2CC2)C(=O)C3(C)C)ccn1` [Example 114, 7-Cyclopropyl-5,5-dimethyl-2-(2-methylpyridin-4-yl)-5H-pyrrolo[2,3-d]pyrimidin-6(7H)-one] registered an inhibition at 20 mg/kg of 42%.

Staying with this assay, now noted: Mus musculus; dose ip 30 mg/kg, at the same time as s.c. 50 mg/kg L-687,414; mice.
In the case of `COCC(CN1C(=O)C(C)(C)c2ccc(-c3cnc(C)nc3)cc21)OC` (stereo not drawn) [Example 175, 1-(2,3-dimethoxypropyl)-3,3-dimethyl-6-(2-methylpyrimidin-5-yl)indolin-2-one], testing at 30 mg/kg gave an inhibition of 95.3%. `Cc1cn(-c2ccc3c(c2)NC(=O)C3(C)C)cn1` [Example 63, 3,3-Dimethyl-6-(4-methyl-1H-imidazol-1-yl)indolin-2-one] had an inhibition at 30 mg/kg of 68.9%. Consider `CN1C(=O)C(C)(C)c2ccc(-c3cccnc3)cc21` [Example 3, 1,3,3-Trimethyl-6-(pyridin-3-yl)indolin-2-one], for which the inhibition at 30 mg/kg turned out to be 53.4%. Still for that read-out and setting: for `Cc1ncc(-c2ccc3c(c2)N(CC2COC2)C(=O)C3(C)C)cn1` [Example 129, 3,3-Dimethyl-6-(2-methylpyrimidin-5-yl)-1-(oxetan-3-ylmethyl)indolin-2-one] the value was 95.5%; for `CN1C(=O)C(C)(C)c2ccc(-c3cn(CC(F)(F)F)cn3)cc21` [Example 134, 1,3,3-Trimethyl-6-(1-(2,2,2-trifluoroethyl)-1H-imidazol-4-yl)indolin-2-one], 79.8%. The molecule `CC1(C)C(=O)Nc2cc(-c3cnc(N)nc3)ccc21` [Example 16, 6-(2-Aminopyrimidin-5-yl)-3,3-dimethylindolin-2-one] gave an inhibition at 30 mg/kg of 89.4%. In turn, `Cc1cc(-c2ccc3c(c2)N(C)C(=O)C3(C)C)on1` [Example 143, 1,3,3-Trimethyl-6-(3-methylisoxazol-5-yl)indolin-2-one] gave an inhibition at 30 mg/kg of 65.7%.

For `Cn1cc(-c2ccc3c(c2)NC(=O)C3(C)C)cn1` [Example 87, 3,3-Dimethyl-6-(1-methyl-1H-pyrazol-4-yl)indolin-2-one], at 30 mg/kg the inhibition was 82.8%. For the molecule `CCc1ncncc1-c1ccc2c(c1)N(C)C(=O)C2(C)C` [Example 14, 6-(4-Ethylpyrimidin-5-yl)-1,3,3-trimethylindolin-2-one], the inhibition at 30 mg/kg came to 66.4%. In the case of `Cc1ncccc1-c1ccc2c(c1)NC(=O)C2(C)C` [Example 19, 3,3-Dimethyl-6-(2-methylpyridin-3-yl)indolin-2-one], at 30 mg/kg the inhibition was 61.6%. Take `Cc1ncc(-c2ccc3c(c2)N(C)C(=O)C3(C)C)[nH]1` [Example 67, 1,3,3-Trimethyl-6-(2-methyl-1H-imidazol-5-yl)indolin-2-one]: the inhibition at 30 mg/kg came to 42.6%. In the case of `CCn1cnc(-c2ccc3c(c2)N(C)C(=O)C3(C)C)c1` [Example 133, 6-(1-Ethyl-1H-imidazol-4-yl)-1,3,3-trimethylindolin-2-one], 30 mg/kg produced 44% inhibition.

In the case of `CC1(C)C(=O)Nc2cc(-c3cn(C4CC4)cn3)ccc21` [Example 113, 6-(1-Cyclopropyl-1H-imidazol-yl)-3,3-dimethylindolin-2-one], the inhibition at 30 mg/kg is 83.9%. On the same count and under the same terms, for `CN1C(=O)C(C)(C)c2ccc(-c3cnc4c(c3)CCC4)cc21` [Example 23, 6-(6,7-Dihydro-5H-cyclopenta[b]pyridin-3-yl)-1,3,3-trimethylindolin-2-one] the value was 81.6%; for `Cc1noc(-c2ccc3c(c2)NC(=O)C3(C)C)n1` [Example 60, 3,3-Dimethyl-6-(3-methyl-1,2,4-oxadiazol-5-yl)indolin-2-one], 24%; for `Cc1cc(-c2cc3c(cn2)C(C)(C)C(=O)N3C)ccn1` [Example 83, 1,3,3-Trimethyl-6-(2-methyl-4-pyridyl)pyrrolo[3,2-c]pyridin-2-one], 53%. `CN1C(=O)C(C)(C)c2ccc(-c3cccnc3)c(F)c21` [Example 34, 7-Fluoro-1,3,3-trimethyl-6-(pyridin-3-yl)indolin-2-one] showed an inhibition at 30 mg/kg of 56.9%.

The molecule `CN1C(=O)C(C)(C)c2ccc(-c3cnc(N)nc3)cc21` [Example 10, 6-(2-Aminopyrimidin-5-yl)-1,3,3-trimethylindolin-2-one] gave an inhibition at 30 mg/kg of 97.1%.

In the case of `Cc1noc(-c2ccc3c(c2)N(C)C(=O)C3(C)C)n1` [Example 59, 1,3,3-Trimethyl-6-(3-methyl-1,2,4-oxadiazol-5-yl)indolin-2-one], 30 mg/kg produced 45.2% inhibition. The molecule `CC1(C)C(=O)Nc2cc(-n3cnc(C(O)C(F)(F)F)c3)ccc21` (stereo not drawn) [Example 168, 3,3-Dimethyl-6-[4-(2,2,2-trifluoro-1-hydroxy-ethyl)imidazol-1-yl]indolin-2-one] returned an inhibition at 30 mg/kg of 77%. The molecule `Cc1ncc(-c2ccc3c(c2)N(C)C(=O)C3(C)C)cn1` [Example 12, 1,3,3-Trimethyl-6-(2-methylpyrimidin-5-yl)indolin-2-one] had an inhibition at 30 mg/kg of 93.7%. `Cc1cncc(C)c1-c1ccc2c(c1)N(C)C(=O)C2(C)C` [Example 28, 6-(3,5-Dimethyl-pyridin-4-yl)-1,3,3-trimethyl-1,3-dihydro-indol-2-one formate] displayed an inhibition at 30 mg/kg of 68.4%. Consider `Cc1nnc(-c2ccc3c(c2)N(C)C(=O)C3(C)C)s1` [Example 72, 1,3,3-Trimethyl-6-(5-methyl-1,3,4-thiadiazol-2-yl)indolin-2-one], for which testing at 30 mg/kg gave an inhibition of 67.4%.

The molecule `Cc1ncc(-c2ccc3c(c2)N(CC(O)C(F)(F)F)C(=O)C3(C)C)cn1` (stereo not drawn) [Example 130, 3,3-Dimethyl-6-(2-methylpyrimidin-5-yl)-1-(3,3,3-trifluoro-2-hydroxypropyl)indolin-2-one] gave an inhibition at 30 mg/kg of 89.4%. `CC1(C)C(=O)Nc2cc(-c3cncnc3)ccc21` [Example 8, 3,3-Dimethyl-6-(pyrimidin-5-yl)indolin-2-one]: the inhibition at 30 mg/kg came out at 52.5%. `Cc1cc(-c2cc3c(cn2)C2(CC2)C(=O)N3C)ccn1` [Example 136, 1′-Methyl-6′-(2-methylpyridin-4-yl)spiro[cyclopropane-1,3′-pyrrolo[3,2-c]pyridin]-2′(1′H)-one] had an inhibition at 30 mg/kg of 89.7%. For the molecule `Cc1ncc(-c2ccc3c(c2)N(CCOC(F)(F)F)C(=O)C3(C)C)cn1` [Example 128, 3,3-Dimethyl-6-(2-methylpyrimidin-5-yl)-1(2-(trifluoromethoxy)ethyl)indolin-2-one], the inhibition at 30 mg/kg stood at 66.1%. As for `CN1C(=O)C(C)(C)c2ccc(-c3ccc4nccn4c3)cc21` [Example 30, 6-(Imidazo[1,2-a]pyridin-6-yl)-1,3,3-trimethylindolin-2-one], at 30 mg/kg the inhibition was 49.1%. Turning to `Cc1ncc(-c2ccc3c(c2)N(CCF)C(=O)C3(C)C)cn1` [Example 132, 1-(2-Fluoroethyl)-3,3-dimethyl-6-(2-methylpyrimidin-5-yl)indolin-2-one], 30 mg/kg produced 95.3% inhibition. Molecule `Cc1ncc(-c2ccc3c(c2)N(CCCOC2CC2)C(=O)C3(C)C)cn1` [Example 50, 1-(3-Cyclopropoxypropyl)-3,3-dimethyl-6-(2-methylpyrimidin-5-yl)indolin-2-one] returned an inhibition at 30 mg/kg of 86.3%.

Molecule `O=C1N(C2CC2)c2cc(-c3cccnc3)ncc2C12CC2` [Example 140, 1′-Cyclopropyl-6′-(pyridin-3-yl)spiro[cyclopropane-1,3′-pyrrolo[3,2-c]pyridin]-2′(1′H)-one] yielded an inhibition at 30 mg/kg of 69.3%.

The same assay, now with this note: dose producing 50% inhibition of L-687,414-induced hyperlocomotion; p.o. 15 min before s.c. 50 mg/kg L-687,414; mice.
Molecule `Cc1ncc(-c2ccc3c(c2)N(CCO)C(=O)C3(C)C)cn1` [Example 55, 1-(2-Hydroxyethyl)-3,3-dimethyl-6-(2-methylpyrimidin-5-yl)indolin-2-one] came in with an ID50 po of 0.88 mg/kg.

As for `Cc1ncc(-c2ccc3c(c2)NC(=O)C3(C)C)cn1` [Example 21, 3,3-Dimethyl-6-(2-methylpyrimidin-5-yl)indolin-2-one], the ID50 po is reported as 1.62 mg/kg. With `CN1C(=O)C(C)(C)c2ccc(-c3cnc4c(c3)NCCO4)cc21` [Example 25, 6-(2,3-Dihydro-1H-pyrido[2,3-b][1,4]oxazin-7-yl)-1,3,3-trimethylindolin-2-one], the ID50 po is 3.03 mg/kg. The molecule `CN1C(=O)C(C)(C)c2ccc(-n3ccnc3)cc21` [Example 61, 6-(1H-Imidazol-1-yl)-1,3,3-trimethylindolin-2-one] registered an ID50 po of 10.71 mg/kg.
